Assay in all cases: ≥ marks a high value that may be exact or a test limit, other limits are often not marked, values filed in µg/mL are converted to µM
Assay [1] deals with Candida albicans.
The subject of assay [2] is Escherichia coli UB1005.
The subject of assay [3] is Staphylococcus epidermidis.
Assay [4] relates to Salmonella enterica serovar Typhimurium.
In assay [5] the test system is Staphylococcus aureus ATCC 25923.
For assay [6], the system named is Enterococcus faecalis ATCC 29212.
Assay [7] deals with Pseudomonas aeruginosa H103.
The test system of assay [8] is Escherichia coli.
For assay [9], the system named is Acinetobacter baumannii.
The test system of assay [10] is Pseudomonas aeruginosa PAO1.
The subject of assay [11] is Pseudomonas aeruginosa.
Assay [12] has as its system Staphylococcus aureus.
Assay [13] has as its system Escherichia coli ATCC 25922.
Assay [14] concerns Micrococcus luteus CCM 144.
Assay [15] has as its system Pseudomonas aeruginosa ATCC 27853.
Assay [16] relates to Bacillus subtilis 168.
In assay [17] the test system is Escherichia coli B.
The subject of assay [18] is Candida albicans F7-39/IDE99.
Assay [19] deals with Staphylococcus aureus 1.
The test system of assay [20] is Staphylococcus aureus ATCC 43300.

Structures are written as SMILES. ≈ marks a conversion by molar mass, not a printed value. Where only a bound is given, the exact number is not on record here.

As usually defined, the MIC is the least concentration at which growth counts as inhibited. High values mean weaker potency, low ones greater potency. `CC[C@H](C)[C@H](NC(=O)[C@@H](NC(=O)[C@@H](NC(=O)[C@H](CCCN=C(N)N)NC(=O)[C@@H](NC(=O)[C@H](CCCN=C(N)N)NC(=O)[C@H](Cc1c[nH]c2ccccc12)NC(=O)[C@H](CCCCN)NC(=O)[C@@H](N)Cc1c[nH]c2ccccc12)C(C)C)C(C)C)[C@@H](C)O)C(=O)O` [WKWRVRVTI]: the MIC in [1] came out at 10.8 µM (≈ 13.4 µg/mL); in assay [2] it was 1.3 µM (≈ 1.62 µg/mL); in assay [3], 1.3 µM (≈ 1.62 µg/mL); in [4], 2.7 µM (≈ 3.36 µg/mL); in assay [5] it was 2.7 µM (≈ 3.36 µg/mL); in [6], 2.7 µM (≈ 3.36 µg/mL). This compound also yielded an MIC in [7] of 5.4 µM (≈ 6.72 µg/mL).
Consider `CC[C@H](C)[C@H](NC(=O)[C@H](CCCN=C(N)N)NC(=O)[C@H](CC(C)C)NC(=O)[C@H](CCC(N)=O)NC(=O)[C@@H](N)C(C)C)C(=O)N[C@@H](CCCN=C(N)N)C(=O)N[C@H](C(=O)N[C@@H](CS)C(=O)N[C@H](C(=O)N[C@H](C(=O)N[C@@H](CCCN=C(N)N)C(=O)N[C@@H](CCCCN)C(=O)O)[C@@H](C)CC)C(C)C)C(C)C` [VQLRIRVCVIRK], for which the MIC is 30.5 µM (≈ 45.3 µg/mL) in assay [8]; 21.6 µM (≈ 32 µg/mL) in [9]; 5.39 µM (≈ 8 µg/mL) in assay [4]; 10.8 µM (≈ 16 µg/mL) in assay [10]; 10.8 µM (≈ 16 µg/mL) in assay [5]; 10.8 µM (≈ 16 µg/mL) in [11]. Besides, the values for the MIC in assay [12] and in [13] were 7.63 µM (≈ 11.3 µg/mL) and 10.8 µM (≈ 16 µg/mL), respectively.
`NCCCC[C@H](NC(=O)[C@H](Cc1c[nH]c2ccccc12)NC(=O)[C@H](Cc1c[nH]c2ccccc12)NC(=O)[C@H](CCCN=C(N)N)NC(=O)[C@@H](N)CCCN=C(N)N)C(=O)N[C@@H](Cc1c[nH]c2ccccc12)C(=O)N[C@@H](Cc1c[nH]c2ccccc12)C(=O)N[C@@H](Cc1c[nH]c2ccccc12)C(=O)N[C@@H](CCCN=C(N)N)C(=O)O` [RRWWKWWWR]: the MIC in [1] was 5.4 µM (≈ 8.35 µg/mL); in assay [2] it was 2.7 µM (≈ 4.17 µg/mL); in [3], 0.7 µM (≈ 1.08 µg/mL); in assay [4], 2.7 µM (≈ 4.17 µg/mL); in assay [5], 0.7 µM (≈ 1.08 µg/mL); in [6] it was 5.4 µM (≈ 8.35 µg/mL). In assay [7], this compound returned an MIC of 5.4 µM (≈ 8.35 µg/mL).
`CC[C@H](C)[C@H](NC(=O)[C@H](CCCN=C(N)N)NC(=O)[C@H](Cc1ccccc1)NC(=O)[C@H](CCCN=C(N)N)NC(=O)[C@@H](N)C(C)C)C(=O)N[C@@H](CCCN=C(N)N)C(=O)N[C@H](C(=O)N[C@@H](C)C(=O)N[C@H](C(=O)N[C@H](C(=O)N[C@@H](CCCN=C(N)N)C(=O)N[C@@H](C)C(N)=O)[C@@H](C)CC)C(C)C)C(C)C` [VRFRIRVAVIRA]: the MIC in [1] was found to be 4.12 µM (≈ 6 µg/mL); in assay [2], 1.1 µM (≈ 1.6 µg/mL); in assay [3], 1.1 µM (≈ 1.6 µg/mL); in assay [4] it was 4.12 µM (≈ 6 µg/mL); in assay [5], 8.24 µM (≈ 12 µg/mL); in [7], 4.12 µM (≈ 6 µg/mL).
Turning to `CC[C@H](C)[C@H](NC(=O)CN)C(=O)N[C@@H](CCSC)C(=O)N[C@@H](CO)C(=O)N[C@@H](CO)C(=O)N[C@@H](CC(C)C)C(=O)N[C@@H](CCSC)C(=O)N[C@@H](CCCCN)C(=O)N[C@@H](CCCCN)C(=O)N[C@@H](CC(C)C)C(=O)N[C@@H](C)C(=O)N[C@@H](C)C(=O)N[C@@H](Cc1cnc[nH]1)C(=O)N[C@H](C(=O)N[C@@H](C)C(=O)N[C@@H](CCCCN)C(N)=O)[C@@H](C)CC` [GIMSSLMKKLAAHIAK], the MIC in [14] was found to be 3 µM (≈ 5.09 µg/mL); in [15] it was 20 µM (≈ 34 µg/mL); in assay [16], 7 µM (≈ 11.9 µg/mL); in [17] it was 15 µM (≈ 25.5 µg/mL); in assay [3], 13 µM (≈ 22.1 µg/mL); in assay [18] it was 18 µM (≈ 30.6 µg/mL). Further, the minimal inhibitory concentration (MIC) was no less than 53 µM in assay [19], 63 µM (≈ 107 µg/mL) in assay [20], 68 µM (≈ 115 µg/mL) in [11] and 64 µM (≈ 109 µg/mL) in assay [12].

The values are drawn from DBAASP.
